Assay results published in patent publication US20260125334A1, “TREATMENT PROCESS FOR PFAS-CONTAINING COMPOUNDS” (priority 2023, published 2026).

How the values were obtained:
[1] = Short chain PFAS standard treated with 2% quat: all PFAS (Example 5)
Method: A standard with approximately 1000 ppt each of PFOA, perfluoro-n-pentanoic acid (PFPeA), and perfluorobutane sulfonic acid (PFBS) was prepared via serial dilution and treated with 2% dimethyldioctadecylammonium bromide in technical triplicate. Samples were centrifuged and the liquid was filtered into a new centrifuge tube using a 0.45 micron syringe filter. Table 2 indicates the concentration of each PFAS after treatment.

[2] = PFAS removal kinetics in PFAS-contaminated field sample, LC-QTOF (Example 6); conditions: 0.01% treatment; aliquots at 0, 5, 10, 30, 90 minutes
Method: To determine PFAS removal kinetics, a PFAS-contaminated field sample was treated with dimethyldioctadecylammonium bromide. Aliquots were pulled at timed intervals and tested for remaining PFAS content. To a polypropylene bottle, 1000 mL of approximately 4 ppm PFAS-contaminated water was added to a 1 L HDPE bottle with a Teflon stir bar. The sample was stirred at 500 RPM for 10 minutes prior to the start of the experiment. To a 50 mL centrifuge tube, 20 mL aliquots were collected at 0, 5, 10, 30, and 90 minutes following treatment with 0.01%. Each sample was centrifuged to remove any remaining solids and passed through 0.45 micron filter prior to analysis by LC-QTOF. […] Subsequent PFAS removal was noted but minimal.

[3] = Effect of treatment rate on PFAS removal from synthetic AFFF wastewater, NMR (Example 4)
Method: Dimethyldimyristylammonium Bromide was tested in synthetic AFFF wastewater to determine if removal efficiency of the PFAS is affected by treatment rate. The treatment compound was added at 2%, 3%, and 4% w/w loading to AFFF wastewater. Solids were separated out via centrifugation and the solution was analyzed by NMR. […] FIG. 5 is the NMR spectra of each solution after treatment. […] As quat loading increased, the total area under the peaks was reduced. In the sample with 4% dimethyldioctadecylammonium bromide loading, total peak area was reduced by 90%.

## CCCCCCCCCCCCCCCCCC[N+](C)(C)CCCCCCCCCCCCCCCCCC.[Br-] [Dimethyldioctadecylammonium bromide, dimethyldioctadecylammonium bromide]
[1]
  Reduction in all PFAS concentrations: > 99.87%
[2]
  Remaining PFAS content between the T=0 and T=5 sample: rapid decrease
Solubility in water
  Solubility in water: nearly insoluble in water
[3]; 4% w/w loading
  Reduction of total NMR peak area: 90%

## CCCCCCCCCCCCCC[N+](C)(C)CCCCCCCCCCCCCC.[Br-] [Dimethyldimyristylammonium bromide, dimethyldimyristylammonium bromide]
[3]; 2%, 3%, and 4% w/w loading
  Concentration of remaining PFAS as concentration of quaternary ammonium compound increased: decreased
